According to patent US6869929B2, “Use of transcription factors for treating inflammation and other diseases” (Beth Israel Deaconess Medical Center, priority 2000, dated 2005):

Legend:
Assay type in all cases: cell-based, human
COL2A1 promoter = experiment: COL2A1 promoter/intron deletion constructs, transient transfection in C-28/I2 cells; conditions: all five constructs -577, -530, -403, -131, -83/+127 bp, 18 h
Experimental: The COL2A1 sequence spanning −577 to +3428 bp (Goldring M B, et al, J Cell Biochem 1994;54:85-99, 39) was cloned into the pGL2-basic (pGL2B) luciferase reporter gene vector (Promega,) and named pGL2-COL2/4.0. Deletion constructs containing −577/+125 bp, −131/+125 bp, −87/+125 bp were prepared by enzyme digestion of pGL2-COL2/4.0 using PstI, ApaI, and PuuII, followed by ligation. For the deletion constructs −45/+125 bp, −83/+7 bp, and −45/+7 bp, PCR products were generated as described (Osaki et al.) and cloned into the pGL2-Basic luciferase vector. These reporter constructs were used as templates to generate point mutations or internal deletions by PCR mutagenesis employing the oligonucleotides listed in FIG. 16 and the QuikChange™ Site-Directed Mutagenesis Kit (Stratagene, La Jolla, Calif.). DNA fragments containing point mutations were then cloned into the pGL2B vector and confirmed by DNA sequencing using a G2 primer on pGL2 DNA. Deletions were also made in the −577/+127 bp COL2A1 promoter construct using the ExSite™ PCR-Based Site-Directed Mutagenesis Kit (Stratagene).
Transient transfection experiments were carried out in C-28/I2 cells using LipofectAMINE PLUS™ Reagent (Life Technologies). Cells were seeded in 6-well tissue culture plates at 3.5×10^5 cells/well in DMEM/F12 containing 10% FCS 24 h prior to transfection. For each well, 1 μg of COL2A1-luciferase construct, 6 μl of PLUS reagent and 92 μl of serum-free DMEM/F12 were mixed and incubated for 15 min at room temperature. LipofectAMINE+ reagent (4 μl) in 100 μl of serum-free medium was then added to each reaction mixture and incubation was continued for an additional 30 min at room temperature. Finally, the transfection mixture was combined with 800 μl of serum-free medium and the lipid-nucleic acid complex was transferred to the washed cell monolayer in each well. After incubation for 4 h at 37° C., the transfection mix was diluted with an equal volume of DMEM/F12 containing 2% Nutridoma-SP, and incubation continued for 18 h in the absence or presence of IL-1β. […] Cell lysates were prepared by extraction with 200 μl of Reporter Lysis Buffer (Promega) and the protein content was determined using the Coomassie Plus Protein Assay Reagent (PIERCE). Luciferase activities were determined by chemiluminescence assay using the Autolumat LB953 luminometer (EG&G Berthold, Oak Ridge, Tenn.), normalized to the amount of protein. Each data point was calculated as the mean±standard deviation for three independently transfected cultures from one representative of at least three experiments. […]
To localize the responses to IL-1β and ESE-1 in the COL2A1 promoter, we made several 5′-deletions of the −577/+127 bp promoter construct, which we had previously determined to be responsive to IL-1β.

COL2A1 = COL2A1 mRNA time course in C-28/I2 chondrocytes; conditions: by 2 h
ESE-1 = ESE-1 mRNA Northern blot in LB-12 osteoblasts; conditions: LB-12 cells; 1, 2, 6, 24 hours
Experimental: U-87 Mg and U-138 Mg (human glioma), THP-1 (human monocytic), RAW 264.7 (murine monocytic), LB-12 (human osteoblast-like large T antigen transformed bone marrow stromal cells), and human chondrocytes were grown and treated with cytokines as described (Apperley, J., et al. 1990. J Bone Mineral Res. 5:S93; Goldring, M. B., et al. 1994. J Clin Invest 94:2307-16; Goldring, S. R., et al. 1983. J Bone Joint Surg 65:575-84; Libermann, T. A., et al. 1987. Embo J. 6:1627-1632).
Total RNA was harvested using QIAshreder (Qiagen) and RNeasy® Mini Kit (Quiagen) or Trizol (Gibco BRL). Poly A^+ RNA was prepared with MicroPoly(A) Pure (Ambion). Northern blots (5 μg total RNA) were hybridized using a full length ESE-1 cDNA probe as described (Oettgen, P., et al. et al. 1997, Mol Cell Biol 17:4419-33.).
Osteoblasts, the bone cells responsible for bone formation, represent another connective tissue cell target of inflammatory cytokines in joint disorders (Bogoch, E. R., and E. Moran. 1998, Can J Surg 41:264-71). […] LB-12 cells were incubated for different times in the absence or presence of IL-1β. […] Since the rapid, but transient induction of ESE-1 resembles that of immediate early genes, we tested the effect of the protein synthesis inhibitor cycloheximide which superinduces expression of certain genes due to mRNA stabilization. Cycloheximide alone had no effect, but superinduced IL-1β-mediated ESE-1 mRNA expression (FIG. 11d).

ESE-1 promoter = ESE-1 promoter luciferase construct (pXP2/ESE-1) transfection; conditions: U-138 MG cells; 16 h
Experimental: Cotransfections of 3-8×10^5 cells were carried out with 600 ng reporter gene construct DNA and 200 ng expression vector DNA using LipofectAMINE PLUS (Gibco-BRL) for 16 hours as described (Oettgen, P., et al. et al., 1997, Mol Cell Biol 17:4419-33). Transfections were performed independently in duplicate and repeated 3 to 4 times with different plasmid preparations with similar results.
To investigate the molecular mechanism by which IL-1 β and LPS regulate ESE-1 expression, we examined the response of an ESE-1 promoter luciferase construct after transfection using two cytokine responsive non-epithelial cell types, U-138 MG human glial cells and RAW 264.7 cells, a murine macrophage cell line (Oettgen, P., et al. 1999, Genomics 55:358-62). Whereas the parental pXP2 vector was not stimulated by IL-1β, in U-138 MG cells, IL-1β increased ESE-1 promoter activity up to 5-fold (FIG. 12a). Similarly, LPS enhanced ESE-1 promoter activity ˜9-fold in RAW 264.7 cells (FIG. 12b).

increase in ESE-1 promoter activity (ESE-1 promoter): up to 5 fold
Substance: IL-1β: interleukin-1 beta, proinflammatory cytokine
inhibition of COL2A1 promoter constructs (COL2A1 promoter): at least 50% | COL2A1 mRNA levels (COL2A1): strongly inhibited | ESE-1 mRNA expression, agent alone (ESE-1): rapidly induced
